According to PubChem BioAssay (NCI):
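Test compounds were applied to cells in 96-well plates for 48 hours at 5 doses. Definition used: TGI = concentration required for complete inhibition of growth.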

How the values were obtained:
Test in all cases: DTP human tumour cell line panel, 48 h
[1] = tested on: RXF 393 renal
[2] = tested on: OVCAR-5 ovarian
[3] = tested on: LOX IMVI melanoma
[4] = tested on: MOLT-4 leukemia
[5] = tested on: RPMI-8226 leukemia
[6] = tested on: BT-549 breast
[7] = tested on: PC-3 prostate
[8] = tested on: OVCAR-4 ovarian
[9] = tested on: A498 renal
[10] = tested on: DU-145 prostate
[11] = tested on: MDA-N
[12] = tested on: SF-268 CNS
[13] = tested on: SW-620 colon
[14] = tested on: HCT-15 colon
[15] = tested on: UACC-257 melanoma
[16] = tested on: OVCAR-8 ovarian
[17] = tested on: SN12C renal
[18] = tested on: SK-OV-3 ovarian

| SMILES | TGI [1] | TGI [2] | TGI [3] | TGI [4] | TGI [5] | TGI [6] | TGI [7] | TGI [8] | TGI [9] | TGI [10] | TGI [11] | TGI [12] | TGI [13] | TGI [14] | TGI [15] | TGI [16] | TGI [17] | TGI [18] |
| --- | --- | --- | --- | --- | --- | --- | --- | --- | --- | --- | --- | --- | --- | --- | --- | --- | --- | --- |
| Cc1ccc(CC(Cc2ccccc2C)C(=O)O)c(C(=O)O)c1 (centres undefined) | > 100 µM | > 100 µM | > 100 µM | > 100 µM | > 100 µM | > 100 µM | > 100 µM | > 100 µM | > 100 µM | > 100 µM | > 100 µM | > 100 µM | > 100 µM | > 100 µM | > 100 µM | > 100 µM | > 100 µM |  |
| Cc1[nH]c(=O)nc2nc3cc(Cl)cc(Cl)c3c(NC(C)(CO)CO)c12 | > 100 µM |  | > 100 µM | > 100 µM |  | > 100 µM | > 100 µM | > 100 µM | 99.4 µM | > 100 µM | > 100 µM | > 100 µM | > 100 µM | > 100 µM | > 100 µM | > 100 µM | > 100 µM | > 100 µM |
| COc1ccc(C(CC2(c3ccc(OC)cc3)SCCCS2)NC(C)=O)cc1 (centres undefined) | > 100 µM | > 100 µM | > 100 µM | 84.3 µM | > 100 µM | > 100 µM | 69 µM |  | > 100 µM | > 100 µM | > 100 µM | > 100 µM | > 100 µM | > 100 µM | 70.2 µM | > 100 µM | 96.8 µM | > 100 µM |
| CC[C@]12C=CCN3CC[C@@]4(c5cc(N=O)c(OC)cc5N(C)[C@H]4[C@@](O)(C(=O)OC)[C@@H]1OC(C)=O)[C@@H]32 | > 100 µM | > 100 µM | > 100 µM | > 100 µM |  | > 100 µM | > 100 µM | > 100 µM | > 100 µM | > 100 µM | 48.5 µM | > 100 µM | > 100 µM | > 100 µM | > 100 µM | > 100 µM | > 100 µM | > 100 µM |
| COC(=O)c1c([N+](=O)[O-])ncn1[C@H]1OC[C@@H](OC(C)=O)[C@@H](OC(C)=O)[C@@H]1OC(C)=O | > 100 µM | > 100 µM | > 100 µM | > 100 µM |  | > 100 µM | > 100 µM | > 100 µM | > 100 µM | > 100 µM | > 100 µM | > 100 µM | > 100 µM | > 100 µM | > 100 µM | > 100 µM | > 100 µM | > 100 µM |
| NC(=O)C1CCCN1C(=O)C(Cc1cnc[nH]1)NC(=O)C1CCCC1 (centres undefined) | > 100 µM | > 100 µM | > 100 µM | > 100 µM | > 100 µM | > 100 µM | > 100 µM | > 100 µM | > 100 µM | > 100 µM | > 100 µM |  | > 100 µM | > 100 µM |  | > 100 µM | > 100 µM | > 100 µM |
| COc1ccc2c3c1OC1C(F)C=CC4(O)C(C2)NCCC314 (centres undefined) | 7.98 µM | 12.8 µM | 10.4 µM | 3.76 µM |  | 6.66 µM | 6.92 µM | 7.05 µM | 15.6 µM | 9.71 µM | 11 µM | 6.93 µM | 7.71 µM | 11.1 µM | 24.1 µM | 14.7 µM | 10.3 µM | 10.3 µM |
| CSC12c3cc(C)n(-c4ccc([N+](=O)[O-])cc4)c3CC(C)(C)CN1C(=O)C2Oc1ccccc1 (centres undefined) | > 100 µM | > 100 µM | > 100 µM | > 100 µM | > 100 µM | > 100 µM | > 100 µM | > 100 µM | > 100 µM | > 100 µM | > 100 µM |  | > 100 µM | > 100 µM | > 100 µM | > 100 µM | > 100 µM |  |
| N#CC(c1ccccc1)N(CCCCCCN(C(=O)c1ccccc1)C(C#N)c1ccccc1)C(=O)c1ccccc1 (centres undefined) | > 100 µM | > 100 µM | > 100 µM | > 100 µM |  | > 100 µM | > 100 µM | 91.2 µM | 55.9 µM | > 100 µM | > 100 µM | > 100 µM | > 100 µM | > 100 µM | 63.9 µM | > 100 µM | > 100 µM | > 100 µM |
| COc1ccc2c(c1)Cc1c(NCCN(C)C)ccc(C(=O)NCCCN(C)CCCNC(=O)c3ccc(NCCN(C)C)c4c3Nc3ccc(OC)cc3C4)c1N2 | 1.85 µM | 0.631 µM | 0.766 µM | 2.62 µM |  | 1.5 µM | 0.838 µM | 0.448 µM | 0.833 µM | 1.04 µM | 0.224 µM | 0.327 µM | 8.65 µM | > 74.3 µM | 1.1 µM | 2.86 µM | 0.624 µM | 0.502 µM |
| Cc1cc(S(=O)(=O)NC2=NCc3nc4ccccc4n32)c(S)cc1Cl | 33 µM | 65.1 µM | 35 µM | 50.2 µM | 47.6 µM | 71.9 µM | 55.6 µM | 83.2 µM | 70.7 µM | > 100 µM | 58.1 µM | > 100 µM | > 100 µM | 59.1 µM | 62.2 µM | > 100 µM | 51 µM |  |
